Where a name gives a salt, the structure may show the parent alone.
Row | Structure (SMILES) | melting point
1 | O=C(N[C@H](Cc1ccc(F)cc1)C(=O)O)OCc1cc2cc(-c3ccc4c(c3)OCO4)ccc2o1 [Compound 116, (R)-2-(5-benzo[1,3]dioxol-5-yl-benzofuran-2-ylmethoxycarbonylamino)-3-(4-fluoro-phenyl)-propionic acid] | 132 to 134.5 °C
2 | O=C(NC(Cc1ccccc1)C(=O)O)OCc1ccc(CCOc2ccccc2)cc1 (stereo not shown) [Compound 73, 2-[4-(2-Phenoxy-ethyl)-benzyloxycarbonylamino]-3-phenyl-propionic acid] | 150.2 to 152.4 °C
3 | O=C(N[C@H](Cc1ccccc1)C(=O)O)OCc1cc2cc(-c3cccc4[nH]ccc34)ccc2o1 (as salt: salt) [Compound 137, (R)-2-[5-(1H-indol-4-yl)-benzofuran-2-ylmethoxycarbonylamino]-3-phenyl-propionic acid] | 100 to 106 °C
4 | O=C(N[C@H](Cc1ccccc1)C(=O)O)OCc1cc2cc(-c3ccc4c(c3)OCO4)ccc2o1 (hydrate or solvate) [Compound 97, (R)-2-(5-benzo[1,3]dioxol-5-yl-benzofuran-2-ylmethoxycarbonylamino)-3-phenyl-propionic acid] | 125 to 131 °C
5 | Cn1cc(C[C@@H](NC(=O)OCc2ccc(-c3ccccc3)cc2)C(=O)O)c2ccccc21 [Compound 145, (R)-2-(biphenyl-4-ylmethoxycarbonylamino)-3-(1-methyl-1H-indol-3-yl)-propionic acid] | 156.7 to 157.2 °C
6 | O=C(O)CC(Cc1ccccc1)NC(=O)OCc1cc2cc(-c3ccccc3)ccc2o1 (stereo not shown) [Compound 110, 4-phenyl-3-(5-phenyl-benzofuran-2-ylmethoxycarbonylamino)-butyric acid] | 168 to 169.8 °C
7 | O=C(N[C@H](Cc1ccccc1)C(=O)O)OCc1ccc2[nH]c(-c3ccccc3)cc2c1 [Compound 132, (R)-3-phenyl-2-(2-phenyl-1H-indol-5-ylmethoxycarbonylamino)-propionic acid] | 176 to 177 °C
8 | CC(C)(C)c1ccc(-c2ccc3oc(COC(=O)N[C@H](Cc4ccc(F)cc4)C(=O)O)cc3c2)cc1 [Compound 117, (R)-2-[5-(4-tert-butyl-phenyl)-benzofuran-2-ylmethoxycarbonylamino]-3-(4-fluoro-phenyl)-propionic acid] | 114.3 to 124.6 °C
9 | O=C(N[C@H](Cc1ccc(F)cc1)C(=O)O)OCc1cc2cc(-c3ccc(F)cc3)ccc2o1 (hydrate or solvate) [Compound 111, (R)-3-(4-fluoro-phenyl)-2-[5-(4-fluorophenyl)-benzofuran-2-ylmethoxycarbonylamino]-propionic acid] | 158 to 162 °C
10 | O=C(NC(Cc1ccc(F)cc1)C(=O)O)OCc1cc2cc(-c3cc(Cl)cc(Cl)c3)ccc2o1 (stereo not shown) [Compound 177, 2-[5-(3,5-dichloro-phenyl)-benzofuran-2-ylmethoxycarbonylamino]-3-(4-fluoro-phenyl)-propionic acid] | 101.1 to 103.2 °C
11 | O=C(NC(Cc1ccccc1)C(=O)O)OCCCc1ccc(-c2ccccc2)cc1 (stereo not shown) [Compound 143, 2-(3-biphenyl-4-yl-propoxycarbonylamino)-3-phenyl-propionic acid] | 139.1 to 139.9 °C
12 | O=C(N[C@H](Cc1ccccc1)C(=O)O)OCc1ccc(COc2cccc([N+](=O)[O-])c2)cc1 [Compound 80, (R)-2-[4-(3-nitro-phenoxymethyl)-benzyloxycarbonylamino]-3-phenyl-propionic acid] | 160.8 to 161.7 °C
13 | O=C(N[C@H](Cc1ccc(Cl)cc1)C(=O)O)OCc1cc2cc(-c3ccccc3)ccc2o1 [Compound 106, (R)-3-(4-chloro-phenyl)-2-(5-phenyl-benzofuran-2-ylmethoxycarbonylamino)-propionic acid] | 151 to 157 °C
14 | CCn1cc(CC(NC(=O)OCc2ccc(-c3ccccc3)cc2)C(=O)O)c2ccccc21 (stereo not shown) [Compound 147, 2-(biphenyl-4-ylmethoxycarbonylamino)-3-(1-ethyl-1Hindol-3-yl)-propionic acid] | 136.8 to 138.5 °C
15 | O=C(NC(Cc1ccccc1)C(=O)O)OCc1cc2cc(-c3cncnc3)ccc2o1 (stereo not shown) [Compound 175, 3-phenyl-2-(5-pyrimidin-5-yl-benzofuran-2-ylmethoxycarbonylamino)-propionic acid] | 192 to 192.5 °C
16 | O=C(N[C@H](Cc1ccc(Cl)cc1)C(=O)O)OCc1cc2cc(-c3ccc(F)cc3)ccc2o1 [Compound 118, (R)-3-(4-chloro-phenyl)-2-[5-(4-fluoro-phenyl)-benzofuran-2-ylmethoxycarbonylamino]-propionic acid] | 130 to 154.5 °C
17 | O=C(NC(Cc1cccc(NS(=O)(=O)c2ccccc2)c1)C(=O)O)OCc1cc2cc(-c3ccccc3)ccc2o1 (stereo not shown) [Compound 171, 3-(3-Benzenesulfonylamino-phenyl)-2-(5-phenyl-benzofuran-2-ylmethoxycarbonylamino)-propionic acid] | 105 to 108 °C
18 | O=C(NC(Cc1cncnc1)C(=O)O)OCc1cc2cc(-c3ccccc3)ccc2o1 (stereo not shown) [Compound 173, 2-(5-phenyl-benzofuran-2-ylmethoxycarbonylamino)-3-pyrimidin-5-yl-propionic acid] | 181.4 to 184.5 °C
19 | O=C(NC(Cc1ccncc1)C(=O)O)OCc1cc2cc(-c3ccc(F)cc3)ccc2o1 (stereo not shown) [Compound 176, 2-[5-(4-fluoro-phenyl)-benzofuran-2-ylmethoxycarbonylamino]-3-pyridin-4-yl-propionic acid] | 255.2 to 255.7 °C
20 | O=C(NC(Cc1cccc(NS(=O)(=O)c2ccccc2)c1)C(=O)O)OCc1ccc(COc2ccccc2)cc1 (stereo not shown) [Compound 83, 3-(3-benzenesulfonylamino-phenyl)-2-(4-phenoxymethyl-benzyloxycarbonylamino)-propionic acid] | 129.7 to 130.3 °C
21 | O=C(N[C@@H](Cc1ccccc1)C(=O)O)OCCc1cc2cc(-c3ccccc3)ccc2o1 [Compound 128, (S)-3-phenyl-2-[2-(5-phenyl-benzofuran-2-yl)-ethoxycarbonylamino]-propionic acid] | 170.9 to 171.9 °C
22 | O=C(N[C@H](Cc1ccccc1)C(=O)O)OCc1ccc2oc(-c3ccc(F)cc3)nc2c1 [Compound 158, (R)-2-[2-(4-fluoro-phenyl)-benzoxazol-5-ylmethoxycarbonylamino]-3-phenyl-propionic acid] | 208.2 to 208.5 °C
23 | Cn1cc(C[C@@H](NC(=O)OCc2ccc(-c3ccccc3)cc2)C(=O)O)c2ccccc2c1=O [Compound 149, (R)-2-(biphenyl-4-ylmethoxycarbonylamino)-3-(2-methyl-1-oxo-1,2-dihydro-isoquinolin-4-yl)-propionic acid] | 215 to 217 °C
24 | O=C(NC(Cc1ccccc1)C(=O)O)OCc1ccc(CCCc2ccccc2)cc1 (stereo not shown) [Compound 168, 3-Phenyl-2-[4-(3-phenyl-propyl)-benzyloxycarbonylamino]-propionic acid] | 134.8 to 135.2 °C
25 | O=C(N[C@@H](Cc1ccc(F)cc1)C(=O)O)OCc1cc2cc(-c3ccc(F)cc3)ccc2o1 [Compound 113, (S)-3-(4-fluoro-phenyl)-2-[5-(4-fluoro-phenyl)-benzofuran-2-ylmethoxycarbonylamino]-propionic acid] | 148.3 to 157 °C

From US7056903B2, “Carboxylic acid derivatives as IP antagonists” (Syntex (U.S.A.) LLC, priority 2000, dated 2006)
